Values of other authors in the PKSmart pharmacokinetics tables (Seal et al. 2025).
Where a SMILES comes first, the peptide text is derived from it. Bridges are numbered along the chain shown (N, C = ends). [ ]: non-standard residue; d: D form. ξ: configuration not given here. ξ2Nal = NC(Cc1ccc2ccccc2c1)C(=O)O; ξW = NC(Cc1c[nH]c2ccccc12)C(=O)O; ξThr(3R) = C[C@@H](O)C(N)C(=O)O; pGlu = O=C1CC[CH](C(=O)O)N1; ξY = NC(Cc1ccc(O)cc1)C(=O)O; Thz = O=C(O)[CH]1CSCN1; ξK = NCCCCC(N)C(=O)O; ξV = CC(C)C(N)C(=O)O; ξC = NC(CS)C(=O)O

Assay: Lombardo, Berellini, Obach 2018, Drug Metab Dispos 46:1466, doi 10.1124/dmd.118.082966
Details: human; for MRT / Vd / clearance / half-life: in vivo, iv; for fraction unbound: plasma

Row | Compound | MRT [h] | Vd [L/kg] | clearance [mL/min/kg] | fraction unbound | half-life [h]
1 | COc1cc2c(cc1OC)CC(=O)N(CCCN(C)C[C@H]1Cc3cc(OC)c(OC)cc31)CC2 | 2.69 | 1.66 | 10.3 | 0.28 | –
2 | O=C(Cn1ccnc1[N+](=O)[O-])NCC(O)C(F)(F)F (stereo not drawn) | 3.86 | 0.69 | 3 | – | 3.45
3 | CCC(=O)C1(c2cccc(O)c2)CCN(C)CC1 | 0.87 | 0.48 | 9.2 | – | 2.3
4 | CC1(C)[C@@H](O[C@H]2OC(C(=O)O)[C@@H](O)[C@H](O)[C@H]2O[C@@H]2OC(C(=O)O)[C@@H](O)[C@H](O)[C@H]2O)CC[C@]2(C)C3C(=O)C=C4C5C[C@@](C)(C(=O)O)CC[C@]5(C)CC[C@]4(C)[C@@]3(C)CC[C@@H]12 (stereo partly drawn) | 7.83 | 0.06 | 0.13 | – | 8.83
5 | CCOC(=O)C(CCc1ccccc1)NC(C)C(=O)N1CC2(CC1C(=O)O)SCCS2 (stereo not drawn) | 0.61 | 0.43 | 11.9 | – | 8.6
6 | CCC/N=C1\S/C(=C\c2ccc(OC[C@H](O)CO)c(Cl)c2)C(=O)N1c1ccccc1C | 42.6 | 2.28 | 0.9 | – | 32.9
7 | COc1c(N2C[C@@H](C)C[C@H](N)C2)ccc2c(=O)c(C(=O)O)cn(C3CC3)c12 | 8.4 | 1.9 | 3.8 | – | 13.5
8 | Nc1cc(OCC2CC2)c(C(=O)NC2CN3CCC2CC3)cc1Cl (stereo not drawn) | 12.3 | 3.9 | 5.2 | – | 13.5
9 | O=C(NCCNCC(O)COc1ccc(O)cc1)N1CCOCC1 (stereo not drawn) | 3.6 | 0.64 | 3 | – | 7.7
10 | CSCC(NC(=O)COc1cccc2cnccc12)C(=O)NC(Cc1ccccc1)C(O)C(=O)N1CSCC1C(=O)NC(C)(C)C (stereo not drawn) | 0.17 | 0.11 | 10.5 | – | 0.44
11 | O=C1CN=C(c2ccccc2Cl)c2cc(Br)ccc2N1 | 28.3 | 0.089 | 0.05 | – | 14.9
12 | CC(=O)Nc1ccc(OC[C@H](O)CNC(C)C)cc1 | – | – | 2.28 | 0.93 | 12.2
13 | C[C@@H](c1cccnc1F)c1c(CCN(C)C)sc2ccccc12 | 10 | 5.73 | 10.4 | – | 15
14 | COc1cc2nc(N(C)CCCNC(=O)C3CCCO3)nc(N)c2cc1OC (stereo not drawn) | 4.2 | 1.5 | 5.9 | 0.14 | 4.8
15 | CCOCCn1c(C2CCN(CCc3ccc(C(C)(C)C(=O)O)cc3)CC2)nc2ccccc21 | 3.56 | 0.61 | 2.87 | 0.13 | 5.16
16 | C=CC[N@@+]12CC[C@@]34c5ccccc5N5C=C6[C@H]7C[C@H]8[C@@]9(CC[N@@+]8(CC=C)C/C7=C/CO)c7ccccc7N(C=C([C@@H](C[C@@H]31)/C(=C\CO)C2)[C@H]54)[C@@H]69 | 4.1 | 0.32 | 1.3 | – | 3.6
17 | C[C@]12CCC(=O)C=C1CC[C@@H]1[C@@H]2[C@@H](O)C[C@@]2(C)[C@H]1CC[C@]2(O)C(=O)CO | 1.9 | 0.38 | 5.7 | – | 1.6
18 | COc1ccccc1Oc1c(NS(=O)(=O)c2ccc(C(C)(C)C)cc2)nc(-c2ncccn2)nc1OCCO | 2.3 | 0.29 | 2.1 | 0.037 | 4.1
19 | C[N+]1(CC2CC2)[C@@H]2C[C@@H](OC(=O)C(CO)c3ccccc3)C[C@H]1[C@@H]1O[C@@H]12 (stereo partly drawn) | 0.74 | 1.12 | 25 | – | 0.83
20 | CN1C(=O)C(O)N=C(c2ccccc2Cl)c2cc(Cl)ccc21 (stereo not drawn) | 6.7 | 1.6 | 4 | – | 4.9
21 | CCC#CC[C@H](C)[C@H](O)C#C[C@H]1[C@H]2CC(=CCOCCCC(=O)O)C[C@H]2C[C@H]1O | 0.59 | 2.4 | 66.2 | – | 0.41
22 | NCCC(O)C(=O)N[C@@H]1C[C@H](N)[C@@H](O[C@H]2O[C@H](CN)CC[C@H]2N)[C@H](O)[C@H]1O[C@H]1O[C@H](CO)[C@@H](O)[C@H](N)[C@H]1O (stereo partly drawn) | 2.73 | 0.21 | 1.28 | – | 2.46
23 | Nc1nc(-n2cc(C(=O)O)c(=O)c3cc(F)c(N4CC(O)C4)c(Cl)c32)c(F)cc1F | 2.5 | 0.35 | 2.33 | – | 2.1

Row | Compound | MRT [h] | Vd [L/kg] | clearance [mL/min/kg] | fraction unbound | half-life [h]
24 | COc1cc2ncnc(Nc3ccc(F)c(Cl)c3)c2cc1OCCCN1CCOCC1 | 32 | 23 | – | – | 34
25 | CNC(=O)C(c1ccccc1)N1CCc2cc(OC)c(OC)cc2[C@@H]1CCc1ccc(C(F)(F)F)cc1 (stereo partly drawn) | 15.9 | 9.75 | 10.2 | – | 34.3
26 | O=c1[nH]c2ccccc2n1CCCN1CCC(n2c(=O)[nH]c3cc(Cl)ccc32)CC1 | 6 | 3.4 | 9.5 | – | –
27 | COc1ccc2c(c1)N(C[C@H](C)CN(C)C)c1ccccc1S2 | 21 | 12 | 9.9 | – | 30
28 | C=C[C@]1(C)C[C@@H](OC(=O)CS[C@@H]2CC[C@@H](N)C[C@H]2O)[C@]2(C)[C@H](C)CC[C@]3(CCC(=O)[C@H]32)[C@@H](C)[C@@H]1O | 5.53 | 1.32 | 3.96 | 0.17 | 6.4
29 | CN[C@@H]1C[C@H]2OC(C)([C@@H]1OC)n1c3ccccc3c3c4c(c5c6ccccc6n2c5c31)C(=O)N[C@@H]4O | 680 | 0.15 | 0.0037 | 0.0022 | 790
30 | CC(C(=O)O)c1ccc2c(c1)[nH]c1ccc(Cl)cc12 (stereo not drawn) | 7.2 | 0.22 | 0.51 | 0.001 | 9.9
31 | Cc1[nH]c(=O)c(C#N)cc1-c1ccncc1 | 0.67 | 0.25 | 6.2 | – | 0.8
32 | CC(C)NCC(O)c1ccc(O)c(O)c1 (stereo not drawn) | 0.43 | 1.5 | 56 | 0.71 | 0.41
33 | CO[C@H]1[C@@H](O)[C@H](N)[C@@H](O[C@H]2O[C@H]([C@H](C)N)CC[C@H]2N)[C@H](O)[C@H]1N(C)C(=O)CN | 2.8 | 0.23 | 1.37 | – | 2
34 | CC(C)C1NC(=O)C(CCCCN)NC(=O)C(Cc2c[nH]c3ccccc23)NC(=O)C(Cc2ccc(O)cc2)NC(=O)C(NC(=O)C(N)Cc2ccc3ccccc3c2)CSSCC(C(=O)NC(C(N)=O)[C@@H](C)O)NC1=O (stereo partly drawn) (H-[ξ2Nal][ξC][ξY][ξW][ξK][ξV][ξC][ξThr(3R)]-NH2; disulfide 2-7) | 0.57 | 0.2 | 5.7 | – | 1.03
35 | O=C(NC1CC[C@@H](c2cccc(F)c2F)CN(CC(F)(F)F)C1=O)N1CCC(n2c(=O)[nH]c3ncccc32)CC1 (stereo partly drawn) | 2.5 | 0.86 | 5.8 | – | 8.2
36 | COc1ccccc1N1CCN(C[C@@H](O)COc2cccc3ccccc23)CC1 | – | – | 11 | 0.008 | 3.3
37 | O[C@@H]1[C@@H](O)[C@@H](O)OC[C@H]1O | 1.9 | 0.23 | 2.38 | – | 1.2
38 | CN(C)CCCNC(=O)/C(=C/CCCCC(O)=NO)COc1cccc2ccccc12 | 4.1 | 0.45 | 1.82 | – | 2.1
39 | O=C(NC1CCN(CCCCC2(C(=O)NCC(F)(F)F)c3ccccc3-c3ccccc32)CC1)c1ccccc1-c1ccc(C(F)(F)F)cc1 | 31.2 | 16.3 | 8.7 | 0.002 | 39.7
40 | Nc1nc2ccc(OC(F)(F)F)cc2s1 | 5.2 | 3.5 | 11.3 | 0.04 | –
41 | CCc1nc(N)nc(N)c1-c1ccc(Cl)cc1 | 140 | 0.43 | 0.052 | 0.095 | 140
42 | NC(Cc1c[nH]c2ccc(O)cc12)C(=O)O (stereo not drawn) | 7.75 | 0.8 | 1.72 | – | 6.14
43 | CCN(CC)CCN(Cc1ccc(-c2ccc(C(F)(F)F)cc2)cc1)C(=O)Cn1c(SCc2ccc(F)cc2)nc(=O)c2c1CCC2 | 48.1 | 11.9 | 4.11 | – | 40.9
44 | COc1ccccc1Oc1c(NS(=O)(=O)c2ccc(C)cn2)nc(-c2ccnc(-c3nnn[nH]3)c2)nc1OCCO | 0.4 | 0.23 | 10.5 | 0.02 | 2.6
45 | Cc1cccc(C)c1NC(=O)C1CCCCN1C (stereo not drawn) | 2.5 | 0.95 | 6.8 | 0.3 | 2
46 | OC(CCN1CCCC1)(c1ccccc1)C1CCCCC1 (stereo not drawn) | 14 | 0.74 | 0.86 | – | 12

Row | Compound | MRT [h] | Vd [L/kg] | clearance [mL/min/kg] | fraction unbound | half-life [h]
47 | CC(NC(=O)C(Cc1c[nH]c2ccccc12)NC(=O)C(N)Cc1cnc[nH]1)C(=O)NC(Cc1c[nH]c2ccccc12)C(=O)NC(Cc1ccccc1)C(=O)NC(CCCCN)C(N)=O (stereo not drawn) (H-HWAWFK-NH2; configuration not given here) | 2.45 | 0.42 | 3.1 | – | 2.46
48 | Nc1ccc(O)c(C(=O)O)c1 | 0.59 | 0.33 | 9.3 | 0.39 | 0.61
49 | Cc1ccc(S(=O)(=O)NC(=O)NN2C[C@H]3CCC[C@@H]3C2)cc1 | 17.5 | 0.43 | 0.41 | 0.03 | 16.4
50 | O=C(O)CSc1nnc(Br)n1-c1ccc(C2CC2)c2ccccc12 | 3.33 | 0.29 | 1.43 | 0.02 | 5
51 | Nc1ccn([C@@H]2O[C@H](CO)C[C@@H]2F)c(=O)n1 | 1.9 | 0.7 | 6.1 | 1 | 1.8
52 | CN1CC(C(=O)N[C@]2(C)O[C@]3(O)[C@@H]4CCCN4C(=O)C(Cc4ccccc4)N3C2=O)C[C@@H]2c3cccc4[nH]cc(c34)C[C@H]21 (stereo partly drawn) | 0.36 | 0.33 | 15.1 | – | 0.55
53 | COc1ccc2c(c1)c(CC(=O)O)c(C)n2C(=O)c1ccc(Cl)cc1 | 1.2 | 0.096 | 1.3 | – | 1.4
54 | CCC(=O)OCC(=O)[C@@]1(OC(=O)CC)[C@@H](C)C[C@H]2[C@@H]3CC=C4CC(=O)C=C[C@]4(C)[C@@]3(Cl)[C@@H](O)C[C@@]21C | 0.1 | 0.29 | 36 | 0.13 | 0.5
55 | CCCCc1nc(C)c(CC(=S)N(C)C)c(=O)n1Cc1ccc(-c2ccccc2-c2nnn[nH]2)cc1 | 1.1 | 0.6 | 9.6 | – | 5.5
56 | CCN(CC)CCNC(=O)c1cc(Cl)c(N)cc1OC(C)C(C)=O (stereo not drawn) | 2.68 | 1.5 | 9.32 | 0.46 | 2.7
57 | O=C1CCC(C(=O)N2CSCC2C(=O)O)N1 (stereo not drawn) ([pGlu]-[Thz]-OH; configuration not given here) | 4.5 | 0.31 | 1.16 | 0.96 | 3.8
58 | CC(C)(C)NC[C@H](O)COc1nsnc1N1CCOCC1 | 3 | 1.5 | 8.5 | – | 2.2
59 | CN1CCN2c3ncccc3Cc3ccccc3C2C1 (stereo not drawn) | 8.8 | 4.2 | 8 | – | –
60 | CN(C)C(=O)CCS[C@H](SCCC(=O)O)c1cccc(/C=C/c2ccc3ccc(Cl)cc3n2)c1 | 2.7 | 0.11 | 0.68 | 0.0004 | 2.3
61 | CN(C)C(=N)NC(=N)N | 1.4 | 0.64 | 7.4 | – | 1.7
62 | C[C@@H](Oc1cc(-c2cnn(C3CCNCC3)c2)cnc1N)c1c(Cl)ccc(F)c1Cl | – | – | – | 0.09 | –
63 | O=C(NCCN1CCN=C1c1ccncc1)Nc1ccc(C(=O)O)cc1 | 3.52 | 0.35 | 1.67 | – | 4.9
64 | CC#CCn1c(N2CCC[C@@H](N)C2)nc2c1c(=O)n(Cc1nc(C)c3ccccc3n1)c(=O)n2C | 140 | 16 | 1.9 | – | 129
65 | CC[N+](C)(C)c1cccc([O-])c1 | 1.9 | 1.1 | 9.6 | – | 1.8
66 | O=C(O)C(O)Cc1ccc(O)c(O)c1 (stereo not drawn) | 0.53 | 0.38 | 17.8 | – | 0.37
67 | CC(c1nc(-c2ccc(C#N)cc2)cs1)[C@@](O)(Cn1cncn1)c1cc(F)ccc1F (stereo partly drawn) | 106 | 5.37 | 0.85 | 0.01 | 86.9
68 | Clc1cccc(N2CCNCC2)c1 | 7 | 2.5 | 6.1 | – | 4.7
69 | N=C(N)c1ccc(CNC(=O)C2CCN2C(=O)C(NCC(=O)O)C2CCCCC2)cc1 (stereo not drawn) | 2 | 0.23 | 1.9 | – | 1.6
